From paper PMC11988817, “Prediction and Prioritisation of Novel Anthelmintic Candidates from Public Databases Using Deep Learning and Available Bioactivity Data Sets” (International Journal of Molecular Sciences, 2025)

Assays:
[1] = tested on: exsheathed third-stage larvae (xL3s) of H. contortus; experiment: xL3 larval development (to L4) assay; design: species or system Haemonchus contortus; conditions: for IC50: Haemonchus contortus, read-out: Larval Development IC50
Protocol: (§1) The prioritised compounds were purchased from MolPort and evaluated for their activity by estimating their IC50 values and MMIs against xL3s of H. contortus (Haecon-5 strain) using an established method. In brief, xL3s were dispensed in 96-well plates (cat. no. 3596; Corning, Corning, NY, USA) at a density of 300 xL3s per well with individual, serially diluted compounds (9-points; 2-fold serial dilution; 50 µM to […]), in a final volume of 100 µL of LB* (= sterile lysogenic broth [LB] supplemented with 100 IU/mL penicillin, 100 µg/mL streptomycin and 0.25 µg/mL amphotericin B [Fungizone®, Thermo Fisher Scientific, Waltham, MA, USA]). Plates containing xL3s were incubated at 38 °C, 10% (v/v) CO2 and >90% relative humidity. Following 168 h of incubation, the compounds were tested by three independent experiments in triplicate. The xL3s motility and development to fourth-stage larvae (L4s) were measured with reference to two commercial anthelmintics, monepantel (Zolvix^TM; Elanco, Greenfield, IN, USA) and moxidectin (Cydectin®; Virbac, Carros, France). Negative control wells containing 0.25% (v/v) DMSO were present on all plates. […] Compound concentrations were log10-transformed and fitted using a variable slope four-parameter equation, constraining the highest value to 100% and employing a least squares (ordinary) fit model as implemented in GraphPad Prism software (v.10.0.1). A one-way analysis of variance (ANOVA) with a Dunnett’s multiple comparison test was used to establish statistically significant differences in larval motility and in development.

[2] = tested on: exsheathed third-stage larvae (xL3s) of H. contortus; experiment: xL3 larval motility dose-response assay; design: species or system Haemonchus contortus; conditions: for inhibition at up to 50 µM / inhibition at 50 µM / Larval motility maximal inhibition (MI; MMI): at 50 µM; for inhibition at up to 50 µM / inhibition at 50 µM: read-out: Larval motility maximal inhibition (MI; MMI) (converted); for IC50: read-out: Larval Motility IC50; for inhibition of xL3 motility (in words): dose-response up to 50 µM
Protocol: as §1

[3] = tested on: exsheathed third-stage larvae (xL3s) of H. contortus; experiment: abnormal larval phenotype / worm morphology assessment; design: species or system Haemonchus contortus; key to Abnormal Phenotype: curved (Cur); evisceration (Evi); coiled (Coi); conditions: 168 h; for Abnormal Phenotype: exhibited at 50 µM
Protocol: as §1

[4] = HepG2 cytotoxicity (CellTiter-Glo); assay type: cell-based; conditions: human
Protocol: The cytotoxicity of the prioritised compounds 3, 4 and 6 on human hepatoma (HepG2) cells was evaluated as described previously. In brief, HepG2 cells were first cultured (in an incubator at 5% (v/v) CO2, 37 °C and >90% humidity) in Dulbecco’s modified Eagle’s medium (DMEM), supplemented with 5% (v/v) foetal bovine serum (FBS). The test compounds were serially diluted (10-points; 2-fold serial dilution; top concentration of 50 μM) in DMEM plus 10% (v/v) FBS, adjusted to a DMSO concentration of 0.5% (v/v) and arrayed across a 384-well plate. Bortezomib (10 μM) was used as a positive control, and 0.5% DMSO was used as a negative control. HepG2 cells (1 × 10^3 cells per 50 μL of DMEM plus 10% FBS) were then seeded into wells of the assay plate; the plates were then incubated in 5% (v/v) CO2, 37 °C and >90% humidity for 48 h. Subsequently, cell proliferation was assessed using CellTiter-Glo (Promega, Fitchburg, WI, USA) and normalised against the negative controls and expressed as a percentage. All compounds were tested in duplicate. The half-maximal cytotoxic (CC50) values were calculated using the software Dotmatics (v.5.3) and Spotfire (v.7.11.1) employing a non-linear regression four-parameter fit analysis.

[5] = tested on: adult females of H. contortus; experiment: adult female motility time-course assay; design: species or system Haemonchus contortus; conditions: 50 µM
Protocol: (§2) Subsequently, the selected compounds evaluated for in vitro activity against larvae were further assessed for their activity against adult females and males of H. contortus using an established motility assay. In brief, the compound was dispensed in 24-well plates (cat. no. 3524; Corning) at a concentration of 50 μM in 500 μL of RPMI* (RPMI 1640 medium supplemented with 4 mM L-glutamine, 100 U/mL penicillin, 100 µg/mL streptomycin and 0.25 µg/mL amphotericin B). Two positive controls, monepantel and moxidectin, were each prepared in the same manner, and a negative control containing 0.25% (v/v) DMSO was included on all plates. Three adult females or males were added to each of the wells containing either the test compound or a control compound and then incubated at 38 °C, 10% (v/v) CO2 and >90% relative humidity for 24 h. The compounds were tested in triplicate. A video recording (30 sec) of each well was taken at 0 h, 3 h, 6 h, 12 h and 24 h during the entire incubation period to assess the reduction in worm motility—scored as 3 (‘good’), 2 (‘low’), 1 (‘very low’) or 0 (‘none’). For each test or control compound, the motility scores for each of the triplicate wells were calculated, normalised with reference to the negative control (100% motility), and recorded as a percentage. A two-way ANOVA with Dunnett’s multiple comparison test was used to establish statistically significant differences against the DMSO control in worm motility for each time point.

[6] = tested on: adult males of H. contortus; experiment: adult male motility time-course assay; design: species or system Haemonchus contortus; conditions: 50 µM
Protocol: as §2

[7] = Haemonchus contortus, 168 h, xL3s, 168 h
[8] = Haemonchus contortus, 168 h, xL3s, 168 h of exposure, three independent assays in triplicate

Row | Compound | IC50 ([1]; xL3s, 168 h of exposure) | IC50 [2, 8] | Abnormal Phenotype [3] | inhibition at 50 µM [2, 7] | Larvae with abnormal phenotype (exhibited at 50 µM) [3] | motility reduction, adult females, 24 h [5] | also measured
1 | N=C(N)c1ccc(N2CCOCC2)cc1 [Compound 2, 4-(Morpholin-4-yl)benzene-1-carboximidamide] | > 50 µM | 1.8 ± 1.4 µM | nil | – | – | – | inhibition at up to 50 µM [2, 7]: 53%
2 | COc1ccc(-c2cncc(C#N)n2)cc1OC [Compound 3, 6-(3,4-Dimethoxyphenyl)pyrazine-2-carbonitrile] | 37.1 µM | 7.9 ± 1.9 µM | Evi | 54% | 80% | – | Larval development maximal inhibition (MI) ([1]; xL3s, 168 h of exposure): 100%; CC50 at 48 h ([4]; HepG2 cells (human hepatoma)): > 40 µM; inhibition of xL3 motility (in words) ([2]; 168 h): inhibition of H. contortus motility was only observed; altered worm morphology / abnormal phenotype (in words) [3]: induced an abnormal phenotype
3 | CC12CN3CN(C1)CC(c1ccccc1)(C3)C2=O [Compound 8, (1S,5R,7S)-5-Methyl-7-phenyl-1,3-diazatricyclo[3.3.1.1³,⁷]decan-6-one] | > 50 µM | 0.8 ± 1.6 µM | nil | 42% | – | – | –
4 | CO/N=C1\C[C@]2(C[C@@H]3C[C@@H](C/C=C(\C)C[C@@H](C)/C=C/C=C4\CO[C@@H]5[C@H](O)C(C)=C[C@@H](C(=O)O3)[C@]45O)O2)O[C@H](/C(C)=C/C(C)C)[C@H]1C [Moxidectin, (1R,4S,4'E,5'S,6R,6'S,8R,10E,13R,14E,16E,20R,21R,24S)-21,24-dihydroxy-4'-methoxyimino-5',11,13,22-tetramethyl-6'-[(E)-4-methylpent-2-en-2-yl]spiro[3,7,19-trioxatetracyclo[15.6.1.14,8.020,24]pentacosa-10,14,16,22-tetraene-6,2'-oxane]-2-one, reference compound] | 45 µM | 0.5 µM | nil | – | – | – | Larval development maximal inhibition (MI) ([1]; xL3s, 168 h of exposure): 100%; Larval motility maximal inhibition (MI; MMI) ([2]; xL3s, 168 h): 75%; Larval motility maximal inhibition (MI; MMI) ([2]; xL3s, 168 h, listed as moxidectin): 5%; IC50 ([2]; xL3s, 168 h of exposure, three independent assays in triplicate): 0.8 ± 0.4 µM
5 | N#Cc1ccc(N2CCC(O)CC2)cc1 [Compound 7, 4-(4-Hydroxypiperidin-1-yl)benzonitrile] | > 50 µM | 2.1 ± 3.5 µM | nil | 70% | – | – | –
6 | N#Cc1ccc(NC(=O)COCC(=O)NCC(N)=O)cc1 [Compound 9, N-(Carbamoylmethyl)-2-{[(4-cyanophenyl)carbamoyl]methoxy}acetamide] | > 50 µM | 4.1 µM | nil | 46% | – | – | –
7 | N#Cc1ccc(OCc2cccc(F)c2)cc1 [Compound 6, 4-[(3-Fluorophenyl)methoxy]benzonitrile] | 23.6 µM | 7.4 ± 9.4 µM | Evi | 100% | 100% | 75% | CC50 at 48 h ([4]; HepG2 cells (human hepatoma)): > 40 µM; inhibition of xL3 motility (in words) ([2]; 168 h): inhibition of H. contortus motility was only observed; motility reduction, adult females, 6 h [5]: 33%; motility reduction, adult females, 12 h [5]: 50%; effect on adult female motility (in words) ([5]; within 24 h): significant reduction in the motility; motility reduction, adult males, 6 h [6]: 50%; motility reduction, adult males, 12 h [6]: 75%; motility reduction, adult males, 24 h [6]: 100%; effect on adult male motility (in words) ([6]; within 24 h): complete immobilisation
8 | CC(C)(CO)NCC#Cc1ccccc1 [Compound 10, 2-Methyl-2-[(3-phenylprop-2-yn-1-yl)amino]propan-1-ol] | > 50 µM | 0.8 ± 1.2 µM | nil | 50% | – | 40% | –
9 | c1ccc(-c2cnc3ccccc3n2)cc1 [Compound 4, 2-Phenylquinoxaline] | – | – | nil | – | – | 40% | IC50 ([1]; 168 h): > 50 µM; CC50 at 48 h ([4]; HepG2 cells): > 40 µM; IC50 ([2]; Haemonchus contortus, 168 h): 5.8 ± 4.1 µM; motility reduction, adult males, 24 h [6]: 50%
10 | O=C(CCC(F)(F)F)NCCc1cnccn1 [Compound 5, 4,4,4-Trifluoro-N-[2-(pyrazin-2-yl)ethyl]butanamide] | > 50 µM | 37.5 ± 2.5 µM | nil | 65% | – | – | –
11 | COC(=O)c1ccc(-c2cc(C#N)ccn2)cc1 [Compound 1, Methyl 4-(4-cyanopyridin-2-yl)benzoate] | > 50 µM | 6.2 ± 0.3 µM | curved (Cur) and Evi | 50% | 20% | – | inhibition of larval development (in words) ([1]; 168 h): not inhibited
12 | C[C@](C#N)(COc1cc(C#N)ccc1C(F)(F)F)NC(=O)c1ccc(SC(F)(F)F)cc1 [Monepantel, N-[(2S)-2-cyano-1-[5-cyano-2-(trifluoromethyl)phenoxy]propan-2-yl]-4-(trifluoromethylsulfanyl)benzamide, reference compound] | 0.4 µM | 0.2 ± 0.002 µM | Coi | – | 100% | 67% | inhibition at up to 50 µM [2, 7]: 100%; motility reduction, adult females, 6 h [5]: 67%; motility reduction, adult females, 12 h [5]: 67%; motility reduction, adult males, 6 h [6]: 67%; motility reduction, adult males, 12 h [6]: 67%; motility reduction, adult males, 24 h [6]: 100%
